Columns and labels:
[1] = target: T1, p38 MAPKα isoform (MAPK14) (Homo sapiens, UniProt Q16539); assay: p38 MAPKα enzyme inhibition (Z-LYTE FRET); type: biochemical; settings: Table 2B, unit inferred; read-out: p38 MAPKα (Enzyme Profile)
T1 construct: purchased Life Technologies
Experimental: The enzyme inhibitory activities of compounds disclosed herein were determined by FRET using synthetic peptides labelled with both donor and acceptor fluorophores (Z-LYTE, Life Technologies, Paisley, UK).
The inhibitory activities of compounds of the invention against the p38 MAPKα isoform (MAPK14: Life Technologies), were evaluated indirectly by determining the level of activation/phosphorylation of the target peptide of the p38 MAPKα down-stream molecule, MAPKAP-K2. The enzyme (40 ng/mL, 2.5 μL) was incubated with the test compound (2.5 μL of either 40 μg/mL, 12 μg/mL, 4 μg/mL, 1.2 μg/mL, 0.4 μg/mL, 0.12 μg/mL, 0.04 μg/mL, 0.012 μg/mL, 0.004 μg/mL or 0.0012 μg/mL) for 2 h at RT. […] Development reagent (protease, 5 μL) was added for 1 h prior to detection in a fluorescence microplate reader (EnVision, Perkin Elmer, Waltham, Mass., USA).
In all cases, the site-specific protease cleaves non-phosphorylated peptide only and eliminates the FRET signal. Phosphorylation levels of each reaction were calculated using the ratio of coumarin emission (donor) over fluorescein emission (acceptor), for which low ratios indicate high phosphorylation and high ratios indicate low phosphorylation levels.

p38MAPKγ (MAPK12) = target: T2, p38MAPKγ (MAPK12) (Homo sapiens, UniProt P53778); assay: p38 MAPKγ enzyme inhibition (Z-LYTE FRET); type: biochemical; settings: Table 2B, unit inferred; read-out: p38 MAPKγ (Enzyme Profile)
T2 construct: purchased Life Technologies
T2 sequence (P53778 1-367): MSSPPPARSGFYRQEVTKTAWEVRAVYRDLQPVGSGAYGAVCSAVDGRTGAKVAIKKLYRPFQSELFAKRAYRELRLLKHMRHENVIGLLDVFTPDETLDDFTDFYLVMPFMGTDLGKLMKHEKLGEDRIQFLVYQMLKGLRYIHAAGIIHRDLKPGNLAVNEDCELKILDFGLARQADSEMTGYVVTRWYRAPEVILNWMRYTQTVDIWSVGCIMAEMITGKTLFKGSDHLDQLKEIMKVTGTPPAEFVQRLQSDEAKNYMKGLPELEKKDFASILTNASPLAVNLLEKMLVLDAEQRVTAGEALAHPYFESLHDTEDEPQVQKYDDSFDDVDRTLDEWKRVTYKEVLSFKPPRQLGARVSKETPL
Procedure, shortened: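 Enzyme (added at 800 ng/mL) was preincubated 2 h at RT with compound (solutions of 40 to 0.0012 μg/mL), then FRET peptide (8 μM) and ATP (400 μM), both as added, were reacted 1 h at RT. Protease development followed for 1 h; phosphorylation was read as the coumarin/fluorescein emission ratio.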

T1 sequence (Q16539 whole entry, canonical isoform): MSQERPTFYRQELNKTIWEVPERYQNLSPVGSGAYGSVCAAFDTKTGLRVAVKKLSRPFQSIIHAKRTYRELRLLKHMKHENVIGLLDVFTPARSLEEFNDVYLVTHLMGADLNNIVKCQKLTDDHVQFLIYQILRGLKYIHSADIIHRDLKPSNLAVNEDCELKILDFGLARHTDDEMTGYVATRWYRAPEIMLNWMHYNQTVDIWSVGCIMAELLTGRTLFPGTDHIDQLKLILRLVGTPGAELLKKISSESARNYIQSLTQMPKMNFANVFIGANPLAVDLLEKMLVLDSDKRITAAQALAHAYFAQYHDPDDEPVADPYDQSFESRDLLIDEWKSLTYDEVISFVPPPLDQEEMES

Structure (SMILES) | IC50 [1] [nM] | IC50 (p38MAPKγ (MAPK12)) [nM]
Cc1ccc(-n2nc(C(C)(C)C)cc2NC(=O)Nc2ccc(OCc3ccnc(Nc4cnc(CO)cn4)c3)c3ccccc23)cc1C [Example 147, 1-(3-(tert-butyl)-1-(3,4-dimethylphenyl)-1H-pyrazol-5-yl)-3-(4-((2-((5-(hydroxymethyl)pyrazin-2-yl)amino)pyridin-4-yl)methoxy)naphthalen-1-yl) urea] | 4.1 | 119
CNC(=O)c1cnc(Nc2cc(COc3ccc(NC(=O)Nc4cc(C(C)(C)C)nn4-c4cccc(C)c4)c4ccccc34)ccn2)cn1 [Example 204, 5-((4-(((4-(3-(3-(tert-butyl)-1-(m-tolyl)-1H-pyrazol-5-yl)ureido)naphthalen-1-yl)oxy)methyl)pyridin-2-yl)amino)-N-methylpyrazine-2-carboxamide] | 16 | 330
Cc1cc(F)cc(-n2nc(C(C)(C)C)cc2NC(=O)Nc2ccc(OCc3ccnc(Nc4cnc(C(=O)N5CCCC5)cn4)c3)c3ccccc23)c1 [Example 236, 1-(3-(tert-butyl)-1-(3-fluoro-5-methylphenyl)-1H-pyrazol-5-yl)-3-(4-((2-((5-(pyrrolidine-1-carbonyl)pyrazin-2-yl)amino)pyridin-4-yl)methoxy)naphthalen-1-yl)urea] | 42 | > 14000
Cc1ccc(-n2nc(C(C)(C)C)cc2NC(=O)Nc2ccc(OCc3ccnc(Nc4cnc(C(=O)N5CC[C@H](O)C5)cn4)c3)c3ccccc23)cc1 [Example 126, (S)-1-(3-(tert-butyl)-1-(p-tolyl)-1H-pyrazol-5-yl)-3-(4-((2-((5-(3-hydroxypyrrolidine-1-carbonyl)pyrazin-2-yl)amino)pyridin-4-yl)methoxy)naphthalen-1-yl)urea] | 47 | 187
COCCNC(=O)Cc1cncc(Nc2cc(COc3ccc(NC(=O)Nc4cc(C(C)(C)C)nn4-c4ccc(C)cc4)c4ccccc34)ccn2)n1 [Example 209, 2-(6-((4-(((4-(3-(3-(tert-butyl)-1-(p-tolyl)-1H-pyrazol-5-yl)ureido)naphthalen-1-yl)oxy)methyl)pyridin-2-yl)amino)pyrazin-2-yl)-N-(2-methoxyethyl)acetamide] | 6.5 | 54
Cc1ccc(-n2nc(C(C)(C)C)cc2NC(=O)Nc2ccc(OCc3ccnc(Nc4cnc(C(=O)NC5CCN(C)CC5)cn4)c3)c3ccccc23)cc1 [Example 80] | < 0.41 | 54
Cc1ncc(Nc2cc(COc3ccc(NC(=O)Nc4cc(C(C)(C)C)nn4-c4cccc(Cl)c4)c4ccccc34)ccn2)nc1C [Example 179, 1-(3-(tert-butyl)-1-(3-chloro-phenyl)-1H-pyrazol-5-yl)-3-(4-((2-((5,6-dimethyl-pyrazin-2-yl)amino)pyridin-4-yl)methoxy)naphthalen-1-yl)urea] | 46 | > 15500
COCCCNC(=O)c1cnc(Nc2cc(COc3ccc(NC(=O)Nc4cc(C(C)(C)C)nn4-c4ccc(C)cc4)c4ccccc34)ccn2)cn1 [Example 186, 5-((4-(((4-(3-(3-(tert-butyl)-1-(p-tolyl)-1H-pyrazol-5-yl)ureido)naphthalen-1-yl)oxy)methyl)pyridin-2-yl)amino)-N-(3-methoxypropyl) pyrazine-2-carboxamide] | 25 | > 14000
COCc1cnc(Nc2cc(COc3ccc(NC(=O)Nc4cc(C(C)(C)C)nn4-c4cccc(F)c4)c4ccccc34)ccn2)cn1 [Example 203, 1-(3-(tert-butyl)-1-(3-fluorophenyl)-1H-pyrazol-5-yl)-3-(4-((2-((5-(methoxymethyl)pyrazin-2-yl)amino)pyridin-4-yl)methoxy)naphthalen-1-yl) urea] | 17 | 250
CCCc1cncc(Nc2cc(COc3ccc(NC(=O)Nc4cc(C(C)(C)C)nn4-c4ccc(C)cc4)c4ccccc34)ccn2)n1 [Example 172, 1-(3-(tert-butyl)-1-(p-tolyl)-1H-pyrazol-5-yl)-3-(4-((2-((6-propylpyrazin-2-yl)amino)pyridin-4-yl)methoxy)naphthalen-1-yl) urea] | 31 | 169
CCc1ncc(Nc2cc(COc3ccc(NC(=O)Nc4cc(C(C)(C)C)nn4-c4ccc(C)cc4)c4ccccc34)ccn2)nc1C [Example 129, 1-(3-(tert-butyl)-1-(p-tolyl)-1H-pyrazol-5-yl)-3-(4-((2-((5-ethyl-6-methylpyrazin-2-yl)amino)pyridin-4-yl)methoxy)naphthalen-1-yl) urea] | 40 | > 15600
CCc1cncc(Nc2cc(COc3ccc(NC(=O)Nc4cc(C(C)(C)C)nn4-c4ccc(OC)c(F)c4)c4ccccc34)ccn2)n1 [Example 168, 1-(3-(tert-butyl)-1-(3-fluoro-4-methoxyphenyl)-1H-pyrazol-5-yl)-3-(4-((2-((6-ethylpyrazin-2-yl)amino)pyridin-4-yl)methoxy)naphthalen-1-yl)urea] | 34 | 1200
CC(C)(C)c1cc(NC(=O)Nc2ccc(OCc3ccnc(Nc4cnccn4)c3)c3ccccc23)n(-c2cccc(CO)c2)n1 [Example 174, 1-(3-(tert-butyl)-1-(3-(hydroxymethyl)phenyl)-1H-pyrazol-5-yl)-3-(4-((2-(pyrazin-2-ylamino)pyridin-4-yl)methoxy)naphthalen-1-yl)urea] | 7.7 | 56
Cc1ccc(-n2nc(C(C)(C)C)cc2NC(=O)Nc2ccc(OCc3ccnc(Nc4cnc5c(n4)CCCC5)c3)c3ccccc23)cc1 [Example 138, 1-(3-(tert-butyl)-1-(p-tolyl)-1H-pyrazol-5-yl)-3-(4-((2-((5,6,7,8-tetrahydro-quinoxalin-2-yl)amino)pyridin-4-yl)methoxy)naphthalen-1-yl)urea] | 29 | > 15300
Cc1ccc(-n2nc(C(C)(C)C)cc2NC(=O)Nc2ccc(OCc3ccnc(Nc4cnc(C(=O)N5CC[C@H](N(C)C)C5)cn4)c3)c3ccccc23)cc1 [Example 258, (S)-1-(3-(tert-butyl)-1-(p-tolyl)-1H-pyrazol-5-yl)-3-(4-((2-((5-(3-(dimethyl-amino)pyrrolidine-1-carbonyl)pyrazin-2-yl)amino)pyridin-4-yl)methoxy)naphthalen-1-yl)urea] | 2.4 | 77
COCC#Cc1cncc(Nc2cc(COc3ccc(NC(=O)Nc4cc(C(C)(C)C)nn4-c4ccc(C)cc4)c4ccccc34)ccn2)n1 [Example 158, 1-(3-(tert-butyl)-1-(p-tolyl)-1H-pyrazol-5-yl)-3-(4-((2-((6-(3-methoxyprop-1-yn-1-yl)pyrazin-2-yl)amino)pyridin-4-yl)methoxy)naphthalen-1-yl)urea] | 435 | > 15000
Cc1ccc(-n2nc(C(C)(C)C)cc2NC(=O)Nc2ccc(OCc3ccnc(Nc4cncc(N5CCCC5)n4)c3)c3ccccc23)cc1 [Example 55, 1-(3-(tert-Butyl)-1-(p-tolyl)-1H-pyrazol-5-yl)-3-(4-((2-((6-(pyrrolidin-1-yl)pyrazin-2-yl)amino)pyridin-4-yl)methoxy)naphthalen-1-yl)urea] | 15 | 151
COC(C)(C)CNC(=O)c1cnc(Nc2cc(COc3ccc(NC(=O)Nc4cc(C(C)(C)C)nn4-c4ccc(C)cc4)c4ccccc34)ccn2)cn1 [Example 74] | 43 | 482
Cc1ccc(-n2nc(C(C)(C)C)cc2NC(=O)Nc2ccc(OCc3ccnc(Nc4cnc5c(n4)CCC5)c3)c3ccccc23)cc1 [Example 130, 1-(3-(tert-butyl)-1-(p-tolyl)-1H-pyrazol-5-yl)-3-(4-((2-((6,7-dihydro-5H-cyclopenta [b]pyrazin-2-yl)amino)pyridin-4-yl)methoxy)naphthalen-1-yl)urea] | 31 | 2790
CN(C)c1ccc(-n2nc(C(C)(C)C)cc2NC(=O)Nc2ccc(OCc3ccnc(Nc4cnccn4)c3)c3ccccc23)cn1 [Example 78] | 21 | 422
Cc1ccc(-n2nc(C(C)(C)C)cc2NC(=O)Nc2ccc(OCc3ccnc(Nc4cnc(C(=O)NCCN5CCN(C)CC5)cn4)c3)c3ccccc23)cc1 [Example 260, 5-((4-(((4-(3-(3-(tert-butyl)-1-(p-tolyl)-1H-pyrazol-5-yl)ureido)naphthalen-1-yl)oxy)methyl)pyridin-2-yl)amino)-N-(2-(4-methylpiperazin-1-yl)ethyl)pyrazine-2-carboxamide] | < 0.39 | 47
Cc1ccc(-n2nc(C(C)(C)C)cc2NC(=O)Nc2ccc(OCc3ccnc(Nc4cnccn4)c3)c3ccccc23)cc1F [Example 59] | 18 | 105

From US11142515B2, “Pyrazolyl-ureas as kinase inhibitors” (RESPIVERT LIMITED, priority 2014, dated 2021)
